According to paper PMC4102551, “Screening and Characterisation of Antimicrobial Properties of Semisynthetic Betulin Derivatives” (PLoS ONE, 2014):
Values after ≈ are worked out from the molar mass of the structure shown. Values joined by “and” are separate entries in the source; they are usually repeats but may differ in a detail not shown here. Identical values can stand only once. Like-named read-outs stand apart in the source and are kept apart here.

Columns and labels:
[1] = tested on: E. coli; parameters: method as in earlier work; details: ref 32; cited from earlier work
[2] = tested on: C. albicans; details: cited from earlier work
[3] = tested on: S. aureus ATCC 25923; test: Broth microdilution assay, S. aureus; type: cell-based, Staphylococcus aureus; details: 50 µM, 24 h, inhibition of growth, mean ± SD; for inhibition at 50 µM: Staphylococcus aureus, ATCC25923, 24 h, read-out: Inhibitory effect (%) S. aureus ATCC 25923
Method in brief: (§1)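 Broth microdilution per CLSI/EUCAST in Mueller Hinton II broth, 5×10^5 cfu/mL, 24 h at 37°C with agitation; growth by absorbance at 620 nm versus controls. Compounds first screened at 50 µM.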

[4] = tested on: E. faecalis ATCC 29212; test: Broth microdilution assay, E. faecalis; type: cell-based, Enterococcus faecalis; details: 50 µM, 24 h, inhibition of growth, mean ± SD; for inhibition at 50 µM: Enterococcus faecalis, ATCC29212, 24 h, read-out: Inhibitory effect (%) E. faecalis ATCC 29212
Method in brief: as §1

[5] = in vitro; type: cell-based, human; details: human
Method in brief: (§2)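 Cytotoxicity read-out: intracellular ATP (CellTiter-Glo luminescence) in Huh-7 hepatoma cells seeded at 20000 cells/well, cultured overnight, then exposed to compounds for 24 h at 37°C in 5% FBS medium. Polymyxin B sulphate (15000 IU/mL) served as positive control.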

[6] = tested on: Huh-7 cells; test: in vitro; type: cell-based, human; details: 50 µM
Method in brief: as §2

[7] = tested on: Streptococcus pyogenes; parameters: method as in PMID 29255382; details: ref 11; cited from earlier work
[8] = Storage stability of samples; type: physicochemical; details: ambient temperature, air atmosphere, several years
Text: Betulin 1 is a stable compound, as we have not noticed any degradation of samples even if stored at ambient temperature under air atmosphere for several years. […] Thus, instability issues cannot be seen as a major concern regarding the betulin derivatives of this study.

[9] = tested on: E. aerogenes ATCC 13048; test: Broth microdilution assay, E. aerogenes; type: cell-based, Enterobacter aerogenes; details: Klebsiella aerogenes, ATCC13048, 24 h, 50 µM, 24 h, inhibition of growth, mean ± SD; read-out: Inhibitory effect (%) E. aerogenes ATCC 13048
Method in brief: as §1

[10] = tested on: C. albicans ATCC 90028; test: Broth microdilution assay, C. albicans; type: cell-based, Candida albicans; details: for inhibition at 50 µM: Candida albicans, ATCC90028, 48 h, read-out: Inhibitory effect (%) C. albicans ATCC 90028
Method in brief: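 Candida albicans ATCC 90028 was grown on Sabouraud Dextrose Agar at 27°C for 16–18 h, then suspended in sterile 0.9% saline. Broth microdilution in clear 96-well plates mixed equal volumes of yeast suspension and diluted sample. Plates were incubated with agitation at 35°C for 48 h. Absorbance at 620 nm was read at 0, 24 and 48 h, and growth inhibition was expressed as a percentage relative to controls.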

[11] = tested on: E. coli ATCC 25922; test: Broth microdilution assay, E. coli; type: cell-based, Escherichia coli; details: Escherichia coli, ATCC25922, 24 h; read-out: Inhibitory effect (%) E. coli ATCC 25922
Method in brief: as §1

[12] = tested on: P. aeruginosa; parameters: method as in earlier work; details: ref 32; cited from earlier work
[13] = tested on: S. aureus; parameters: method as in earlier work; details: ref 32; cited from earlier work
[14] = tested on: P. aeruginosa ATCC 27853; test: Broth microdilution assay, P. aeruginosa; type: cell-based, Pseudomonas aeruginosa; details: Pseudomonas aeruginosa, ATCC27853, 24 h; read-out: Inhibitory effect (%) P. aeruginosa ATCC 27853
Method in brief: as §1

[15] = tested on: S. aureus infected HL cell line; test: Host-pathogen co-culture assay; type: cell-based, Staphylococcus aureus; details: at the highest concentration (range 0.024–100 µM), 3 days
Experimental: Briefly, HL cells used as the host cell were seeded at 40000 cells/well on black-walled microplates (Perkin Elmer) and incubated at 37°C, 5% CO2 and 95% humidity for 24 h. Cell monolayers were infected with 2000 cfus of S. aureus in RPMI 1640 media without antibiotics. Compounds were added to the media at different concentrations selected on the basis of the MIC determinations. […] Co-cultures were incubated for 3 days at 37°C, 5% CO2 and 95% humidity. Following the incubation period the cells were washed with 200 µL 6.7 mM PBS, pH 7.4, and finally, 200 µL 6.7 mM PBS, pH 7.4 containing 10 µg/mL fluorescein diacetate (FDA) was added to the cells to evaluate the survival of the host cells. After 45 min incubation at room temperature (RT), fluorescence was measured at 485 nm excitation and 538 nm emission with a Victor plate reader.
For studying simultaneously the efficacy and tolerability of antibacterial compounds, an assay based on co-culturing of a secondary human cell line (HL, derived originally from human lung) and a pathogen was used. […] In the assay, host cells are incubated in the presence of the test sample and are infected with bacteria. After 3 days of incubation, the host cell survival is determined using fluorescein diacetate to measure the viability of the host cells. […]

[16] = tested on: B. subtilis, S. aureus, S. pyogenes, Staphylococcus saprophyticus, E. coli, P. aeruginosa and Shigella sonnei; parameters: method as in PMID 23684720; details: ref 37; cited from earlier work

## C=C(C)[C@@H]1CC[C@]2(CO)CC[C@]3(C)[C@H](CC[C@@H]4[C@@]5(C)CC[C@H](O)C(C)(C)[C@@H]5CC[C@]43C)[C@@H]12 [Compound 1, lup-20(29)-ene-3β, 28-diol]
[1]
  MIC against E. coli: 250 µg/mL (≈ 565 µM)
[2]; ref 12
  MIC against C. albicans: 250 µg/mL (≈ 565 µM)
[2]; ref 41
  MIC against C. albicans: 180 µg/mL (≈ 407 µM)
[3]
  inhibition at 50 µM: -6.7 ± 6.4%
[4]
  Inhibitory effect (%) E. faecalis ATCC 29212: 19.7±6.2%
  inhibition at 50 µM: 20%
[5]; 50 µM, 24 h exposure, ATP content, 5% FBS, read-out: Cytotoxicity (%) Huh-7 cells
  cytotoxicity at 24 h, 50 µM: 14%
[6]; 24 h exposure, ATP content, 5% FBS
  Cytotoxicity (%) Huh-7 cells: 13.7±2.7%
[7]
  MIC against S. pyogenes: 85 µg/mL (≈ 192 µM)
[8]
  Stability on storage: stable
[9]
  inhibition at 50 µM: 5.7 ± 2.1%
[10]; 50 µM, 48 h at 35°C, inhibition of growth, mean ± SD
  Inhibitory effect (%) C. albicans ATCC 90028: inactive
[10]
  inhibition at 50 µM: -27.5 ± 15%
[11]
  inhibition at 50 µM: 1.3 ± 5.1%
[12]
  MIC against P. aeruginosa: 250 µg/mL (≈ 565 µM)
[13]
  MIC against S. aureus: 250 µg/mL (≈ 565 µM)
[14]
  inhibition at 50 µM: -1.2 ± 2.5%

## C=C(C)[C@@H]1CC[C@]2(C(=O)O)CC[C@]3(C)C(CCC4[C@@]5(C)CCC(=O)C(C)(C)C5CC[C@]43C)C12 (some centres unmarked) [Compound 23, betulonic acid]
[3]
  Inhibitory effect (%) S. aureus ATCC 25923: 51.1±7.3%
  inhibition at 50 µM: 51%
[4]
  Inhibitory effect (%) E. faecalis ATCC 29212: 74% and 74.3±0.8%
  inhibition at 50 µM: > 70%
[5]; Cytotoxicity (%) Huh-7 cells
  cytotoxicity at 24 h, 50 µM: 18%
[6]; human, 24 h
  Cytotoxicity (%) Huh-7 cells: 17.8±12.6%
[9]
  inhibition at 50 µM: 21.8 ± 4.1%
[10]
  inhibition at 50 µM: 25.2 ± 11%
[15]
  Activity in host-pathogen co-culture assay: 27%
[11]
  inhibition at 50 µM: 9.1 ± 8.9%
[14]
  inhibition at 50 µM: 9.5 ± 2.5%

## CC1(C)C=C2[C@H]3CC[C@@H]4[C@@]5(C)CC[C@H](O)C(C)(C)[C@@H]5CC[C@@]4(C)[C@]3(C)CC[C@@]2(C(=O)O)CC1 [MA, morolic acid]
[16]
  MIC against a panel of seven different bacterial species: ≥ 100 µg/mL
